Experimental data taken from US20070248944A1, “Preventive and Remedy for Collagen or Elastin Metabolic Disorder” (YAMAGUCHI UNIVERSITY, priority 2004, published 2007).

What was measured:
[1] = system: abdominal aortic aneurysm model (angiotensin II-infused apoE knockout mice); assay: JNK inhibition experiment using an apoE knockout mouse aneurysm model (angiotensin II infusion, prevention); format: in vivo; conditions: by week 5 after initiation of angiotensin II infusion; control group 6.25%
Procedure: An abdominal aortic aneurysm model was generated through continuous administration of angiotensin II to apolipoprotein E (apo E) knockout mice according to Daugherty et al's method (J. Clin. Invest. 105: 1605-1612 (2000)). Specifically, mini-osmotic pump (Alzet) was implanted into 24-week-old apoE knockout male mice and angiotensin II (1 μg/min/kg) was continuously infused. These model mice were affected with hyperlipidemia, hypertension, and marked aortic arteriosclerosis. As a result of 4 weeks of angiotensin II infusion, aneurysm formation was observed mainly in the suprarenal abdominal aorta of these mice. Some of these mice died due to aneurysmal rupture. […] Simultaneously with the initiation of continuous infusion of angiotensin II, daily subcutaneous injection of a JNK inhibitor SP600125 (SP group: 8 mice) or a solution (control group: 16 mice) without JNK inhibitor was initiated. The method employed herein for administration of SP600125 was similar to that in Example 1 above. On week 4, the maximum diameter of each abdominal aorta was measured using ultrasonic diagnostic equipment.

[2] = system: abdominal aortic aneurysm model (angiotensin II-infused apoE knockout mice); assay: Aneurysm therapy and regression in apoE knockout mouse aneurysm model; format: in vivo; conditions: 8 weeks of injection; control group 0% ±13%; p<0.05
Procedure: After completion of 4 weeks of angiotensin II infusion, the lumen diameter of each abdominal aortic aneurysm was measured using ultrasonic diagnostic equipment. The mice were evenly divided into 2 groups based on the measured values. Immediately after grouping, daily subcutaneous injection of the […] inhibitor SP600125 (SP group) or a solution alone (control group) was initiated. The method employed herein for administration of SP600125 and the solution was similar to that in Example 1 above. On week 8 after the initiation of injection, the aneurysm diameter of each abdominal aortic aneurysm was measured again using ultrasonic diagnostic equipment.

[3] = system: human abdominal aortic aneurysmal wall tissue; assay: 3H-labeled proline incorporation in human aneurysmal wall culture system; format: cell-based; conditions: 5 mM peptide; TNF-α 100 ng/ml; 48 hours; p<0.05
Procedure: Aneurysmal wall tissue excised at the time of operation of human abdominal aortic aneurysms was chopped and then cultured. The ability of aneurysmal wall to newly synthesize collagen was analyzed using 3H-labeled proline that is abundantly contained in collagen according to the Kidwell et al's method (Methods in Enzymology 147: 407-414 (1987)). Specifically, 3H-labeled proline (3 μCi/ml) was added to media to initiate culture. Immediately after culture initiation, a JNK inhibitor peptide (D-JNKI1, 5 mM, ALEXIS) was administered. D-TAT (5 mM, ALEXIS) was used as a control peptide. At 12 hours after peptide administration, stimulation was performed with TNF-α (R&D Systems, 100 ng/ml) TNF-α is an inflammatory cytokine that is increased in human aortic aneurysms and is known to activate JNK. 48 hours later, proteins in the culture supernatants were collected. 3H-labeled proline that had been incorporated for novel synthesis was measured using a scintillation counter.

MMP-9 = MMP-9 secretion in TNF-α-stimulated THP-1 cells, gelatin zymography; format: cell-based, human; conditions: 0, 1, 2, and 5 μM peptide, TNF-α 50 ng/ml, 48 hours
Procedure: To verify the effects of a JNK inhibitor peptide, an experiment was conducted using MMP-9 as an index, which is thought to be important in the pathogenesis of aneurysms, in a cultured cell system. Cells used herein were macrophage cells (THP-1) mainly expressing MMP-9 in human aneurysms. Specifically, a JNK inhibitor peptide D-JNKI1 (ALEXIS) was administered at various concentrations (0, 1, 2, and 5 μM D-JNKI1) in advance to cultured THP-1 cells. D-TAT (ALEXIS) was used as a control peptide. At 24 hours after peptide administration. the cells were stimulated with TNF-α (50 ng/ml), an inflammatory cytokine. 48 hours later, culture solutions were collected and then the amounts of MMP-9 secreted in the culture solutions were subjected to quantitative analysis by the gelatin zymography method.

lysyl oxidase = assay: Lysyl oxidase mRNA expression in serum-deficient vascular smooth muscle cells, real time PCR; format: cell-based, rat; design: dose or concentration left out as unconfirmed; conditions: serum-deficiency stress; day 6; p<0.01
Procedure: An experiment was conducted using a vascular smooth muscle cell primary culture system isolated from a rat aorta. Serum deficiency state was created at the initiation of the experiment. JNK of cultured cells was activated by serum-deficiency stress. Immediately after the initiation of the experiment, a JNK inhibitor peptide (D-JNKI1, 5 mM, ALEXIS) was administered. D-TAT (5 mM, ALEXIS) was used as a control peptide. On day 6 after peptide administration, the cells were harvested. Lysyl oxidase expression was subjected to quantitative analysis at the mRNA level using the real time PCR method. Lysyl oxidase (LOX) is an enzyme essential for the maturation of collagen fiber or elastin fiber. Decreased level of LOX indicates lowered ability to synthesize collagen or elastin.

[4] = system: vascular smooth muscle cells isolated from a rat aorta; assay: Collagen synthesis (3H-labeled proline, collagenase-sensitive fraction) in vascular smooth muscle cell primary culture; format: cell-based; design: dose or concentration left out as unconfirmed; conditions: 72 hours; serum-free media; p<0.01
Procedure: An experiment was conducted using a vascular smooth muscle cell primary culture system isolated from a rat aorta. Among newly-synthesized proteins into which 3H-labeled proline had been incorporated, fractions that are specifically degraded by collagen degrading enzymes were subjected to quantitative analysis according to Kidwell et al's method (Methods in Enzymology, 147: 407-414 (1987)). 3H-labeled proline (3 μCi/ml) was added to serum-free media to initiate culture. Immediately after culture initiation, a JNK inhibitor peptide (D-JNK1, 0, 1, 2, and 5 mM, ALEXIS) was administered. At 72 hours after peptide administration, proteins in the culture supernatants were collected. Furthermore, only fractions that had been solubilized by collagen degrading enzymes were collected. 3H-labeled proline that had been incorporated for novel collagen synthesis was measured using a scintillation counter.

Oc1c2ccccc2c2c3c(cccc13)N=N2 [SP600125, Anthra[1-9-cd]pyrazol-6(2H)-one]
Cumulative survival rate [1]: 87.5%
Reduction percentage of aneurysm diameter (before vs after injection) [2]: 17% ±10%

c-Jun N-terminal Kinase Peptide Inhibitor 1, D-stereoisomer [D-JNKI1]
3H-labeled proline incorporation decreased by TNF-α [3]: significantly restored
MMP-9 secretion due to TNF-α (MMP-9): suppressed MMP-9 secretion due to TNF-α in a concentration-dependent manner
Lysyl oxidase expression level (mRNA) (lysyl oxidase): inhibited a decrease in lysyl oxidase expression level
Ability to synthesize collagen [4]: 1.6±0.1 times
